One assay concerns the target Factor XIa (Homo sapiens, UniProt P03951). As to the kind of experiment: Factor XIa inhibition assay (FLINT) utilizing a fluorophore-quencher pair peptide substrate 5Fam-[…]-K5Tamra. The format is biochemical. As to conditions: kinetic (KIN) reads, read-out: FXIa KIN Inh IC50. Summed up: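 FXIa was preincubated with compound for 30 min at room temperature in Tris pH 7.5 buffer containing CaCl2, BSA and CHAPS, then reacted with 15 μM quenched 5Fam/Tamra peptide substrate. Fluorescence (485/520 nm) was read kinetically every 5 min for 30 min.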

Another assay has as its target human plasma kallikrein (Homo sapiens, UniProt P03952). As to the kind of experiment: Kallikrein inhibition assay (FLINT) utilizing a quenched AMC peptide substrate Z-Gly-Pro-Arg-AMC. The format is biochemical. As to conditions: kinetic (KIN) reads, read-out: Kallikrein KIN Inh IC50. The essentials:
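Human plasma kallikrein (2 nM final) pre-incubated 30 min with compound (11-point 3-fold series, top 1 μM, 2% DMSO), then 50 μM Z-Gly-Pro-Arg-AMC added. Buffer 50 mM Tris pH 7.5, 100 mM NaCl, 5 mM CaCl2, BSA, CHAPS. AMC fluorescence (340/440 nm) read kinetically over 30 min at room temperature, IC50 by 4-parameter logistic fit.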

Experimental findings from patent US20230097157A1, “Bicyclic Pyridin-2-one and pyrimidin-4-one Derivatives Useful As a Factor XIa Inhibitors” (Janssen Pharmaceutica NV, priority 2021, published 2023) are described below.

Like-named read-outs stand apart in the source and are kept apart here.

Chain of Factor XIa (P03951 388-625 limits assumed): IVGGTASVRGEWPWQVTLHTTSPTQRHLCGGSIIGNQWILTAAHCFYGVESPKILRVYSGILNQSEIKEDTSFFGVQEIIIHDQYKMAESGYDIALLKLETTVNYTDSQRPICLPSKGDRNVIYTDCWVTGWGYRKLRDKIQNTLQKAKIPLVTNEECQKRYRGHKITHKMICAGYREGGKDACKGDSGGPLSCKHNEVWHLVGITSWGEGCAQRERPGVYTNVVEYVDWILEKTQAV
Chain of Factor XIa (P03951 19-387 partner limits assumed): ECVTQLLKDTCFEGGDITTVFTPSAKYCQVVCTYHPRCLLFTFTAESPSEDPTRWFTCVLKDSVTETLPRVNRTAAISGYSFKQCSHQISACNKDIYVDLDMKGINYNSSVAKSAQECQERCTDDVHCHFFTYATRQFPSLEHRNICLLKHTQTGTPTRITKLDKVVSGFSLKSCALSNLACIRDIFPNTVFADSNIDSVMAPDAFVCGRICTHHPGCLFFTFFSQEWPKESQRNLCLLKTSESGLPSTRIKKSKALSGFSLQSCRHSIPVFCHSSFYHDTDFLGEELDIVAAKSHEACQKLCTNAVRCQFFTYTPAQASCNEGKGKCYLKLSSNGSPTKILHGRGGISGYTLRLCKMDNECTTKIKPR
Chain of human plasma kallikrein (P03952 391-638 limits assumed): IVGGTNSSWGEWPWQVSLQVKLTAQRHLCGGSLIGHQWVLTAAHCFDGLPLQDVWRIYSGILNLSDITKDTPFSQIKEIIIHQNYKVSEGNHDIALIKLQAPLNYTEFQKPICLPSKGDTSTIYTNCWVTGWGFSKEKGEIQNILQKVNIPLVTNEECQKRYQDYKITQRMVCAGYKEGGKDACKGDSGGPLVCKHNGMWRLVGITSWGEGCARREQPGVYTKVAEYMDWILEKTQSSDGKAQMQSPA
Chain of human plasma kallikrein (P03952 20-390 partner limits assumed): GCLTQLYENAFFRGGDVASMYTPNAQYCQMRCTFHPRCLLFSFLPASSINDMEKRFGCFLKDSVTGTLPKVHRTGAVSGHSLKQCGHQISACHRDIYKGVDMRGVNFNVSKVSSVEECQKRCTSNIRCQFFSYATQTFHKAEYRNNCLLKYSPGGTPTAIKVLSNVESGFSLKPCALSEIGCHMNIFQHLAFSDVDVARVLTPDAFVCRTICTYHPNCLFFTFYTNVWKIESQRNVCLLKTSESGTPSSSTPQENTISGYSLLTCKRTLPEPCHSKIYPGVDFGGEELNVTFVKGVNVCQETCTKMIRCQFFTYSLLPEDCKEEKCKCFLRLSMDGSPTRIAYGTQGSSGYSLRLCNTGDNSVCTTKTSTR

A word on the IC50: it is the concentration that inhibits the measured activity by half. With `C[C@@H]1C[C@H](c2ncc(-c3ccnc(F)c3)[nH]2)n2c1cc(-c1c(-n3cnnn3)ccc(Cl)c1F)cc2=O` (stereo in doubt) [Example 43, (1*R,3*R)-7-(3-Chloro-2-fluoro-6-(1H-tetrazol-1-yl)phenyl)-3-(5-(2-fluoropyridin-4-yl)-1H-imidazol-2-yl)-1-methyl-2,3-dihydroindolizin-5(1H)-one], the figures for the half-maximal inhibitory concentration (IC50) at Factor XIa (values in nM) and at human plasma kallikrein (values in nM) were 12.4 nM and 108 nM, respectively.
As to `C[C@H]1C[C@@H](c2ncc(-c3ccnc(F)c3)[nH]2)n2c1cc(-c1c(-n3cnnn3)ccc(Cl)c1F)cc2=O` (stereo in doubt) [Example 44, (1*S,3*S)-7-(3-Chloro-2-fluoro-6-(1H-tetrazol-1-yl)phenyl)-3-(5-(2-fluoropyridin-4-yl)-1H-imidazol-2-yl)-1-methyl-2,3-dihydroindolizin-5(1H)-one], the figures for the IC50 at Factor XIa (values in nM) and at human plasma kallikrein (values in nM) were 14.9 nM and 97.8 nM, respectively.
The corresponding values for `C[C@H]1C[C@@H](c2ncc(-c3ccc4nn(C)cc4c3)[nH]2)n2c1cc(-c1c(-n3cnnn3)ccc(Cl)c1F)cc2=O` (stereo in doubt) [Example 46, (1*S,3*S)-7-(3-Chloro-2-fluoro-6-(1H-tetrazol-1-yl)phenyl)-1-methyl-3-(5-(2-methyl-2H-indazol-5-yl)-1H-imidazol-2-yl)-2,3-dihydroindolizin-5(1H)-one] are 431 nM and 488 nM.
In the same order, the values of `C[C@@H]1C[C@H](c2ncc(-c3ccc4nn(C)cc4c3)[nH]2)n2c1cc(-c1c(-n3cnnn3)ccc(Cl)c1F)cc2=O` (stereo in doubt) [Example 47, (1*R,3*R)-7-(3-Chloro-2-fluoro-6-(1H-tetrazol-1-yl)phenyl)-1-methyl-3-(5-(2-methyl-2H-indazol-5-yl)-1H-imidazol-2-yl)-2,3-dihydroindolizin-5(1H)-one] are 23.7 nM and 21.7 nM.
As to `C[C@H]1C[C@@H](c2ncc(-c3ccc4nccn4c3)[nH]2)n2c1cc(-c1c(-n3cnnn3)ccc(Cl)c1F)cc2=O` (stereo in doubt) [Example 48, (1S*,3S*)-7-(3-Chloro-2-fluoro-6-(1H-tetrazol-1-yl)phenyl)-3-(5-(imidazo[1,2-a]pyridin-6-yl)-1H-imidazol-2-yl)-1-methyl-2,3-dihydroindolizin-5(1H)-one], the half-maximal inhibitory concentration (IC50) is 3000 nM at Factor XIa (unit μM) and above 10000 nM on human plasma kallikrein (unit μM).
On to `C[C@@H]1C[C@H](c2ncc(-c3ccc4nccn4c3)[nH]2)n2c1cc(-c1c(-n3cnnn3)ccc(Cl)c1F)cc2=O` (stereo in doubt) [Example 49, (1R*,3R*)-7-(3-Chloro-2-fluoro-6-(1H-tetrazol-1-yl)phenyl)-3-(5-(imidazo[1,2-a]pyridin-6-yl)-1H-imidazol-2-yl)-1-methyl-2,3-dihydroindolizin-5(1H)-one], for which the 50% inhibitory concentration (IC50) on Factor XIa (values in nM) is 24.2 nM; at human plasma kallikrein (values in nM), 44.3 nM.
For `C[C@@H]1C[C@H](c2ncc(-c3ccn4nccc4c3)[nH]2)n2c1cc(-c1c(-n3cnnn3)ccc(Cl)c1F)cc2=O` (stereo in doubt) [Example 52, (1*R,3*R)-7-(3-Chloro-2-fluoro-6-(1H-tetrazol-1-yl)phenyl)-1-methyl-3-(5-(pyrazolo[1,5-a]pyridin-5-yl)-1H-imidazol-2-yl)-2,3-dihydroindolizin-5(1H)-one], the half-maximal inhibitory concentration (IC50) on Factor XIa (unit μM) is 7900 nM; at human plasma kallikrein (unit μM), above 10000 nM.
Turning to `C[C@H]1C[C@@H](c2ncc(-c3ccn4nccc4c3)[nH]2)n2c1cc(-c1c(-n3cnnn3)ccc(Cl)c1F)cc2=O` (stereo in doubt) [Example 53, (1*S,3*S)-7-(3-Chloro-2-fluoro-6-(1H-tetrazol-1-yl)phenyl)-1-methyl-3-(5-(pyrazolo[1,5-a]pyridin-5-yl)-1H-imidazol-2-yl)-2,3-dihydroindolizin-5(1H)-one], the 50% inhibitory concentration (IC50) at Factor XIa (values in nM) came out at 43.7 nM; on human plasma kallikrein (values in nM), 54 nM.
On to `C[C@H]1C[C@@H](c2cnc(-c3ccc(N)nc3F)[nH]2)n2c1cc(-c1c(-n3cnnn3)ccc(Cl)c1F)cc2=O` (stereo in doubt) [Example 54, (1 S*,3S*)-3-(2-(6-Amino-2-fluoropyridin-3-yl)-1H-imidazol-5-yl)-7-(3-chloro-2-fluoro-6-(1H-tetrazol-1-yl)phenyl)-1-methyl-2,3-dihydroindolizin-5(1H)-one], for which the IC50 on Factor XIa (values in nM) was 430 nM; at human plasma kallikrein (unit μM) it was above 10000 nM.
Turning to `C[C@@H]1C[C@H](c2cnc(-c3ccc(N)nc3F)[nH]2)n2c1cc(-c1c(-n3cnnn3)ccc(Cl)c1F)cc2=O` (stereo in doubt) [Example 55, (1R*,3R*)-3-(2-(6-Amino-2-fluoropyridin-3-yl)-1H-imidazol-5-yl)-7-(3-chloro-2-fluoro-6-(1H-tetrazol-1-yl)phenyl)-1-methyl-2,3-dihydroindolizin-5(1H)-one], the IC50 at Factor XIa (values in nM) is 1.1 nM; on human plasma kallikrein (values in nM) it was 42.5 nM.
As to `C[C@@H]1C[C@H](c2ncc(-c3ccc(N)nc3F)[nH]2)n2c1cc(-c1c(-n3cnnn3)ccc(Cl)c1F)cc2=O` (stereo in doubt) [Example 56, (1*R,3*R)-3-(5-(6-Amino-2-fluoropyridin-3-yl)-1H-imidazol-2-yl)-7-(3-chloro-2-fluoro-6-(1H-tetrazol-1-yl)phenyl)-1-methyl-2,3-dihydroindolizin-5(1H)-one], the IC50 at Factor XIa (unit μM) is 1200 nM; on human plasma kallikrein (unit μM), above 10000 nM.
As for `C[C@@H]1CC(c2ncc(-c3cnc(N)c(F)c3)[nH]2)n2c1cc(-c1c(-n3cnnn3)ccc(Cl)c1F)cc2=O` (stereo in doubt) [Example 60, (1*R)-3-(5-(6-Amino-5-fluoropyridin-3-yl)-1H-imidazol-2-yl)-7-(3-chloro-2-fluoro-6-(1H-tetrazol-1-yl)phenyl)-1-methyl-2,3-dihydroindolizin-5(1H)-one], the 50% inhibitory concentration (IC50) on Factor XIa (values in nM) was found to be 47.8 nM; at human plasma kallikrein (values in nM), 185 nM.
As for `C[C@H]1C[C@@H](c2ncc(-c3ccc(N)nc3F)[nH]2)n2c1cc(-c1c(-n3cnnn3)ccc(Cl)c1F)cc2=O` (stereo in doubt) [Example 68, (1*S,3*S)-3-(5-(6-Amino-2-fluoropyridin-3-yl)-1H-imidazol-2-yl)-7-(3-chloro-2-fluoro-6-(1H-tetrazol-1-yl)phenyl)-1-methyl-2,3-dihydroindolizin-5(1H)-one], the IC50 on Factor XIa (unit μM) and at human plasma kallikrein (unit μM) was above 10000 nM each time.
Consider `Nc1ccc(-c2[nH]c(C3CC4(CC4)c4nc(-c5c(-n6cnnn6)ccc(Cl)c5F)cc(=O)n43)nc2F)c(F)n1` (stereo in doubt) [Example 76, (S)-6′-(5-(6-amino-2-fluoropyridin-3-yl)-4-fluoro-1H-imidazol-2-yl)-2′-(3-chloro-2-fluoro-6-(1H-tetrazol-1-yl)phenyl)-6′,7′-dihydro-4′H-spiro[cyclopropane-1,8′-pyrrolo[1,2-a]pyrimidin]-4′-one], for which the IC50 on Factor XIa (values in nM) worked out at 0.8 nM; at human plasma kallikrein (values in nM), 12.1 nM.
Turning to `COc1cc(-c2cnc([C@@H]3C[C@H](C)c4nc(-c5c(-n6cnnn6)ccc(Cl)c5F)cc(=O)n43)[nH]2)ccn1` (stereo in doubt) [Example 97, (6*S,8*S)-2-(3-Chloro-2-fluoro-6-(1H-tetrazol-1-yl)phenyl)-6-(5-(2-methoxypyridin-4-yl)-1H-imidazol-2-yl)-8-methyl-7,8-dihydropyrrolo[1,2-a]pyrimidin-4(6H)-one], the half-inhibitory concentration (IC50) at Factor XIa (unit μM) is 6400 nM; on human plasma kallikrein (unit μM) it was above 10000 nM.
With `COc1cc(-c2cnc([C@@H]3C[C@@H](C)c4nc(-c5c(-n6cnnn6)ccc(Cl)c5F)cc(=O)n43)[nH]2)ccn1` (stereo in doubt) [Example 98, (6*S,8*R)-2-(3-Chloro-2-fluoro-6-(1H-tetrazol-1-yl)phenyl)-6-(5-(2-methoxypyridin-4-yl)-1H-imidazol-2-yl)-8-methyl-7,8-dihydropyrrolo[1,2-a]pyrimidin-4(6H)-one], the half-maximal inhibitory concentration (IC50) amounted to 143 nM at Factor XIa (values in nM) and 135 nM at human plasma kallikrein (values in nM).
The corresponding values for `COc1cc(-c2cnc([C@H]3C[C@@H](C)c4nc(-c5c(-n6cnnn6)ccc(Cl)c5F)cc(=O)n43)[nH]2)ccn1` (stereo in doubt) [Example 99, (6*R,8*R)-2-(3-Chloro-2-fluoro-6-(1H-tetrazol-1-yl)phenyl)-6-(5-(2-methoxypyridin-4-yl)-1H-imidazol-2-yl)-8-methyl-7,8-dihydropyrrolo[1,2-a]pyrimidin-4(6H)-one] are 8 nM and 23.8 nM.
The corresponding values for `COc1cc(-c2cnc([C@H]3C[C@H](C)c4nc(-c5c(-n6cnnn6)ccc(Cl)c5F)cc(=O)n43)[nH]2)ccn1` (stereo in doubt) [Example 100, (6*R,8*S)-2-(3-Chloro-2-fluoro-6-(1H-tetrazol-1-yl)phenyl)-6-(5-(2-methoxypyridin-4-yl)-1H-imidazol-2-yl)-8-methyl-7,8-dihydropyrrolo[1,2-a]pyrimidin-4(6H)-one] are 6.9 nM and 7.6 nM.
The corresponding values for `C[C@H]1C[C@@H](c2ncc(-c3cn[nH]c3)[nH]2)n2c1nc(-c1c(-n3cnnn3)ccc(Cl)c1F)cc2=O` (stereo in doubt) [Example 107, (6*S,8*S)-6-(5-(1H-Pyrazol-4-yl)-1H-imidazol-2-yl)-2-(3-chloro-2-fluoro-6-(1H-tetrazol-1-yl)phenyl)-8-methyl-7,8-dihydropyrrolo[1,2-a]pyrimidin-4(6H)-one] are 2.4 nM and 95.9 nM.
Regarding `C[C@@H]1C[C@H](c2ncc(-c3cn[nH]c3)[nH]2)n2c1nc(-c1c(-n3cnnn3)ccc(Cl)c1F)cc2=O` (stereo in doubt) [Example 108, (6*R,8*R)-6-(5-(1H-Pyrazol-4-yl)-1H-imidazol-2-yl)-2-(3-chloro-2-fluoro-6-(1H-tetrazol-1-yl)phenyl)-8-methyl-7,8-dihydropyrrolo[1,2-a]pyrimidin-4(6H)-one], the values for the concentration for half-maximal inhibition (IC50) at Factor XIa (values in nM) and on human plasma kallikrein (unit μM) were 90.3 nM and 7100 nM, respectively.
